According to ChEMBL document CHEMBL3352746, “Synthesis and anticancer activity of quinopimaric and maleopimaric acids’ derivatives” (Bioorg Med Chem, 2014):

Columns and labels:
[1] = Antitumor activity against mouse Ehrlich carcinoma cells implanted in mouse assessed as increase in life span at 50 mg/kg, ip dosed daily for 5 days administered 48 hrs after tumor implantation; format: functional; conditions: route intraperitoneal
[2] = tested on: Lewis lung carcinoma cell line; test: Antitumor activity against mouse LLC cells implanted in mouse assessed as tumor growth inhibition at 40 mg/kg, ip dosed daily for 5 days measured 1 day after treatment termination; format: functional; conditions: route intraperitoneal, read-out: TGI
[3] = tested on: Lewis lung carcinoma cell line; test: Antitumor activity against mouse LLC cells implanted in mouse assessed as tumor growth inhibition at 40 mg/kg, ip dosed daily for 5 days measured 5 days after treatment termination; format: functional; conditions: 120 h, route intraperitoneal, read-out: TGI
[4] = tested on: P388; test: Antitumor activity against mouse P388 cells implanted in mouse assessed as increase in life span at 40 mg/kg, ip dosed daily for 5 days administered 24 hrs after tumor implantation; format: functional; conditions: route intraperitoneal
[5] = tested on: HL-60(TB); test: Growth inhibition of human HL-60(TB) cells; format: functional
[6] = Antitumor activity against mouse AKATOL cells implanted in mouse assessed as tumor growth inhibition at 40 mg/kg, ip dosed daily for 5 days measured 5 days after treatment termination; format: functional; conditions: 120 h, route intraperitoneal, read-out: TGI
[7] = Growth inhibition of human EKVX cells; format: functional
[8] = tested on: P388; test: Antitumor activity against mouse P388 cells implanted in mouse assessed as increase in life span at 10 mg/kg, ip dosed daily for 5 days administered 24 hrs after tumor implantation; format: functional; conditions: route intraperitoneal
[9] = tested on: SK-OV-3; test: Growth inhibition of human SKOV3 cells; format: functional
[10] = tested on: Mus musculus; test: Toxicity in mouse P388 cells implanted mouse assessed as mean ascites volume at 10 mg/kg, ip dosed daily for 5 days administered 24 hrs after tumor implantation; format: organism-based; design: dose 10 mg/kg, route intraperitoneal; conditions: in vivo
[11] = tested on: SK-MEL-5; test: Growth inhibition of human SK-MEL-5 cells; format: functional
[12] = tested on: DU-145; test: Growth inhibition of human DU145 cells; format: functional
[13] = tested on: HT-29; test: Growth inhibition of human HT-29 cells; format: functional
[14] = tested on: Mus musculus; test: Toxicity in mouse Ehrlich carcinoma cells implanted mouse assessed as mean ascites volume at 50 mg/kg, ip dosed daily for 5 days administered 48 hrs after tumor implantation; format: organism-based; design: dose 50 mg/kg, route intraperitoneal; conditions: in vivo
[15] = tested on: NCI-H226; test: Growth inhibition of human NCI-H226 cells; format: functional
[16] = tested on: Mus musculus; test: Toxicity in mouse P388 cells implanted mouse assessed as mean spleen weight at 20 mg/kg, ip dosed daily for 5 days administered 24 hrs after tumor implantation; format: organism-based; design: dose 20 mg/kg, route intraperitoneal; conditions: in vivo
[17] = Growth inhibition of human HCT15 cells; format: functional
[18] = tested on: TK-10; test: Growth inhibition of human TK10 cells; format: functional
[19] = tested on: M14; test: Growth inhibition of human M14 cells; format: functional
[20] = Growth inhibition of human NCI-ADR-RES cells; format: functional
[21] = Growth inhibition of human BT549 cells; format: functional
[22] = Growth inhibition of human OVCAR8 cells; format: functional, OVCAR-8
[23] = tested on: U-251; test: Growth inhibition of human U251 cells; format: functional
[24] = Antitumor activity against mouse CA-755 cells implanted in mouse assessed as tumor growth inhibition at 40 mg/kg, ip dosed daily for 5 days measured 16 days after treatment termination; format: functional; conditions: CA-755, ip, route intraperitoneal, read-out: TGI
[25] = tested on: SN12C; test: Growth inhibition of human SN12C cells; format: functional
[26] = tested on: T47D; test: Growth inhibition of human T47D cells; format: functional
[27] = Growth inhibition of human UACC257 cells; format: functional
[28] = tested on: P388; test: Antitumor activity against mouse P388 cells implanted in mouse assessed as increase in life span at 20 mg/kg, ip dosed daily for 5 days administered 24 hrs after tumor implantation; format: functional; conditions: route intraperitoneal
[29] = Growth inhibition of human OVCAR4 cells; format: functional, OVCAR-4
[30] = Growth inhibition of human Hs 578T cells; format: functional
[31] = tested on: MDA-MB-468; test: Growth inhibition of human MDA-MB-468 cells; format: functional
[32] = Antitumor activity against mouse CA-755 cells implanted in mouse assessed as tumor growth inhibition at 40 mg/kg, ip dosed daily for 5 days measured 12 days after treatment termination; format: functional; conditions: CA-755, ip, route intraperitoneal, read-out: TGI
[33] = Antitumor activity against mouse CA-755 cells implanted in mouse assessed as increase in life span at 40 mg/kg, ip dosed daily for 5 days; format: functional; conditions: CA-755, ip, 120 h, route intraperitoneal
[34] = Antitumor activity against mouse CA-755 cells implanted in mouse assessed as tumor growth inhibition at 40 mg/kg, ip dosed daily for 5 days measured 1 day after treatment termination; format: functional; conditions: CA-755, ip, route intraperitoneal, read-out: TGI
[35] = Growth inhibition of human UO31 cells; format: functional
[36] = tested on: Mus musculus; test: Toxicity in mouse P388 cells implanted mouse assessed as mouse mortality at 20 mg/kg, ip dosed daily for 5 days administered 24 hrs after tumor implantation; format: organism-based; design: dose 20 mg/kg, route intraperitoneal; conditions: in vivo
[37] = tested on: A498; test: Growth inhibition of human A498 cells; format: functional
[38] = tested on: KM12; test: Growth inhibition of human KM12 cells; format: functional
[39] = Antitumor activity against mouse CA-755 cells implanted in mouse assessed as tumor growth inhibition at 40 mg/kg, ip dosed daily for 5 days measured 8 to 9 days after treatment termination; format: functional; conditions: CA-755, ip, route intraperitoneal, read-out: TGI
[40] = tested on: Lewis lung carcinoma cell line; test: Antitumor activity against mouse LLC cells implanted in mouse assessed as tumor growth inhibition at 40 mg/kg, ip dosed daily for 5 days measured 8 to 9 days after treatment termination; format: functional; conditions: route intraperitoneal, read-out: TGI
[41] = tested on: Mus musculus; test: Toxicity in mouse P388 cells implanted mouse assessed as mean spleen weight at 40 mg/kg, ip dosed daily for 5 days administered 24 hrs after tumor implantation; format: organism-based; design: dose 40 mg/kg, route intraperitoneal; conditions: in vivo
[42] = read-out: pLC50 (the source's name) (converted)

COC(=O)[C@]1(C)CCC[C@]2(C)[C@H]3C[C@H]4C(C(C)C)=C[C@]3(CC[C@H]21)[C@@H]1/C(=N/O)CC/C(=N\O)[C@@H]14
ILS at 50 mg/kg [1]: -3%
inhibition in vivo at 40 mg/kg [2]: 47%
inhibition in vivo at 40 mg/kg [3]: 33%
ILS at 40 mg/kg [4]: -7%
GI50 [5]: 1.95 µM
CC50 [5, 42]: 36.3 µM
TGI ([5]; read-out: pTGI (converted)): 4.57 µM
inhibition in vivo at 40 mg/kg [6]: 60%
GI50 [7]: 3.72 µM
CC50 [7, 42]: 79.4 µM
TGI ([7]; read-out: pTGI (converted)): 18.2 µM
ILS at 10 mg/kg [8]: -4%
GI50 [9]: 10.2 µM
CC50 [9, 42]: 47.9 µM
TGI ([9]; read-out: pTGI (converted)): 22.4 µM
Activity [10]: 1.3 mL
GI50 [11]: 3.09 µM
CC50 [11, 42]: 36.3 µM
TGI ([11]; read-out: pTGI (converted)): 11.5 µM
GI50 ([12]; DU-145): 3.02 µM
CC50 ([12]; DU-145, read-out: pLC50 (converted)): > 100 µM
TGI ([12]; DU-145, read-out: pTGI (converted)): 15.8 µM
GI50 [13]: 2.69 µM
CC50 [13, 42]: 52.5 µM
TGI ([13]; read-out: pTGI (converted)): 7.94 µM
Activity [14]: 0.63 mL
GI50 [15]: 7.94 µM
CC50 [15, 42]: 85.1 µM
TGI ([15]; read-out: pTGI (converted)): 28.2 µM
Activity [16]: 101 mg
GI50 ([17]; HCT-15): 3.39 µM
CC50 ([17]; HCT-15, read-out: pLC50 (the source's name) (converted)): 39.8 µM
TGI ([17]; HCT-15, read-out: pTGI (converted)): 12.9 µM
GI50 [18]: 9.12 µM
CC50 [18, 42]: 56.2 µM
TGI ([18]; read-out: pTGI (converted)): 22.9 µM
GI50 [19]: 5.25 µM
CC50 [19, 42]: 55 µM
TGI ([19]; read-out: pTGI (converted)): 18.6 µM
GI50 [20]: 3.16 µM
CC50 ([20]; read-out: pLC50 (converted)): > 100 µM
TGI ([20]; read-out: pTGI (converted)): 9.55 µM
GI50 ([21]; BT-549): 3.55 µM
CC50 ([21]; BT-549, read-out: pLC50 (the source's name) (converted)): 36.3 µM
TGI ([21]; BT-549, read-out: pTGI (converted)): 11.2 µM
GI50 ([22]; OVCAR-8): 3.24 µM
CC50 ([22]; OVCAR-8, read-out: pLC50 (converted)): > 100 µM
TGI ([22]; OVCAR-8, read-out: pTGI (converted)): 12.6 µM
GI50 [23]: 4.07 µM
CC50 [23, 42]: 39.8 µM
TGI ([23]; read-out: pTGI (converted)): 15.1 µM
inhibition in vivo at 40 mg/kg [24]: 32%
GI50 [25]: 1.86 µM
CC50 [25, 42]: 8.13 µM
TGI ([25]; read-out: pTGI (converted)): 3.89 µM
GI50 [26]: 1.91 µM
CC50 [26, 42]: 24.5 µM
TGI ([26]; read-out: pTGI (converted)): 4.68 µM
GI50 ([27]; UACC-257): 3.63 µM
CC50 ([27]; UACC-257, read-out: pLC50 (the source's name) (converted)): 38.9 µM
TGI ([27]; UACC-257, read-out: pTGI (converted)): 12 µM
ILS at 20 mg/kg [28]: -4%
GI50 ([29]; OVCAR-4): 3.55 µM
CC50 ([29]; OVCAR-4, read-out: pLC50 (converted)): > 100 µM
TGI ([29]; OVCAR-4, read-out: pTGI (converted)): 19.1 µM
GI50 [30]: 0.01 µM
CC50 [30, 42]: 11.2 µM
TGI ([30]; read-out: pTGI (converted)): 2.04 µM
GI50 [31]: 4.68 µM
CC50 [31, 42]: 64.6 µM
TGI ([31]; read-out: pTGI (converted)): 20 µM
inhibition in vivo at 40 mg/kg [32]: 35%
ILS at 40 mg/kg [33]: 11%
inhibition in vivo at 40 mg/kg [34]: 83%
GI50 ([35]; UO-31): 4.9 µM
CC50 ([35]; UO-31, read-out: pLC50 (the source's name) (converted)): 75.9 µM
TGI ([35]; UO-31, read-out: pTGI (converted)): 20.9 µM
Activity [36]: Non-toxic
GI50 [37]: 2.24 µM
CC50 [37, 42]: 25.1 µM
TGI ([37]; read-out: pTGI (converted)): 6.76 µM
GI50 [38]: 3.39 µM
CC50 [38, 42]: 34.7 µM
TGI ([38]; read-out: pTGI (converted)): 10.7 µM
inhibition in vivo at 40 mg/kg [39]: 52%
inhibition in vivo at 40 mg/kg [40]: 20%
Activity [41]: 212 mg
